Assay results taken from a melting point compilation (Tetko et al.; mined from patent text by program, amines drawn as free bases though some values may be those of a salt).

First: O=S(=O)(NCc1ccncc1)c1ccc(Br)s1
Second: O=C(O)CCCc1ccc(-c2ccccc2Br)cc1
The melting point of the first is higher: 159 °C for the first, 148 to 149 °C for the second.

First: O=C(O)CCON=c1c2nccc3cccc(c32)n2cccc12
Second: CC(C)Cn1c(=O)n(C)c(=O)c2c(CCCCC(=O)O)n(Cc3cccc4ccccc34)cc21
The melting point of the first is higher: 250 °C for the first, 146 to 147 °C for the second.

First: CCc1ccc(-c2nnc(N3CCC(O)CC3)nc2-c2ccc(CC)cc2)cc1
Second: C[C@]1(COc2ccc(N3CCC(Cc4ccc(Cl)cc4)CC3)cc2)Cn2cc([N+](=O)[O-])nc2O1
The melting point of the first is lower: 164 to 166 °C for the first, 207 to 211 °C for the second.

First: O=[N+]([O-])c1cc(S(=O)(=O)Oc2ccccc2)ccc1Cl
Second: COc1ccc(S(=O)(=O)Oc2cccc(OS(=O)(=O)c3ccc(OC)cc3)c2)cc1
The melting point of the first is lower: 71 °C for the first, 81 to 84 °C for the second.

First: COCCNc1ccc2c(c1)OC(c1ccccc1)C(c1ccc3c(c1)NC(=O)CO3)=C2 (centres undefined)
Second: Cc1cccc(-c2nc3ccc(OCCCCl)cc3n2Cc2ccccc2)c1
The melting point of the first is higher: 185 to 192 °C for the first, 97 °C for the second.

First: Cc1ncn(-c2cc(C)c3[nH]c(=O)ccc3c2)c1[N+](=O)[O-]
Second: COC(=O)n1nc(-c2cc(Cl)c(C)c(Cl)c2)ccc1=O
The melting point of the first is higher: 306 to 309 °C for the first, 203 to 206 °C for the second.

First: CC(NC(=O)C1=C(C(=O)Nc2cc(OC3CCCC3)c(Cl)cc2F)CCCC1)c1ccccc1 (centres undefined)
Second: COC(=O)C1(C(=O)O)CCc2cc(C3CCCCCC3)ccc21 (centres undefined)
The melting point of the first is higher: 173 to 175 °C for the first, 140 to 141 °C for the second.

Compared with `CS(=O)(=O)c1nc(C(N)=O)n[nH]1`, `CN(C)S(=O)(=O)Oc1ccccc1S(N)(=O)=O` is lower in melting point: 172 to 180 °C for the first, 88 to 89 °C for the second.

First: CC12C=CC(=O)CC1CCC1C2CCC2(C)C(C(=O)NC3(C#N)CCCC3)CCC12 (centres undefined)
Second: CC(=O)C1CCC2C3CCC4CC(O)C(Br)CC4(C)C3C(=O)CC12C (centres undefined)
The melting point of the first is higher: 262 to 269 °C for the first, 172 to 173 °C for the second.

Compared with `Cc1ccccc1P(=O)(O)c1ccccc1C`, `O=C(Nc1ccccc1)c1cc2ccccc2s1` is higher in melting point: 174 to 175 °C for the first, 188 °C for the second.

Compared with `COC1=NS(=O)N=C1NCCCCc1ncc(Br)cc1N` (centres undefined), `COc1cc(N)c(Cl)cc1C(=O)NCC1CCN(CCCCN)CC1` is lower in melting point: 118 to 120 °C for the first, 104 to 107 °C for the second.

First: COc1ccc(CN(C)CCc2ccc(NC(=O)c3cccc4c(=O)c5cccc(OC)c5[nH]c34)cc2)cc1OC
Second: CCOC(=O)[C@H](Cc1ccc(-c2c(OC)cc(CO)cc2OC)cc1)NC(=O)c1c(Cl)cccc1Cl
The melting point of the first is higher: 172 °C for the first, 121 °C for the second.

First: CC(C)(C)OC(=O)N1CCC(CBr)CC1
Second: CC(C)(C)OC(=O)CC[C@@H](NC(=O)OCc1ccccc1)C(N)=O
The melting point of the first is lower: 48 to 50 °C for the first, 138 to 140 °C for the second.

First: Cc1ccc2c(c1)c(=O)c1c(cnn1C)n2CC#N
Second: Cc1c(Br)sc2cc(CO)ccc12
The melting point of the first is higher: 214 to 219 °C for the first, 91 °C for the second.

First: COc1ccc(C(=O)c2cccnc2N2CCCC2=O)cc1
Second: COc1ccc(C(=O)c2[nH]c(=O)[nH]c2CN(C)C)cc1
The melting point of the first is lower: 76 to 77 °C for the first, 165 to 167 °C for the second.

First: COc1ccc(N(Cc2cc(C(C)(C)C)c(O)c(C(C)(C)C)c2)S(=O)(=O)c2ccc(C)cc2)cn1
Second: COc1cc(C(=O)NC(C)(C)C)ccc1S(=O)(=O)N1C(=O)C(N)(c2ccccc2Cl)c2cc(Cl)ccc21 (centres undefined)
The melting point of the first is lower: 127 to 129 °C for the first, 263 to 265 °C for the second.

Compared with `COC(=O)C1=C(C)NC(C)=C(c2nc(CS(=O)(=O)Cc3ccccc3)no2)C1c1cccc([N+](=O)[O-])c1` (centres undefined), `Cc1oc(-c2ccccc2)nc1CCOc1cccc(OC(C)(C)C(=O)O)c1` is lower in melting point: 227 °C for the first, 140 to 141 °C for the second.

First: N#Cc1nccn1Cc1ccccc1
Second: N#CN=c1ncccn1Cc1ccc(Cl)nc1
The melting point of the first is lower: 51 to 52 °C for the first, 218 to 220 °C for the second.

Compared with `CCCCN1CCC(C(=O)O)(S(=O)(=O)c2ccc(Oc3ccc(Cl)cc3)cc2)CC1`, `CCCCOc1ccc(S(=O)(=O)C2(C(=O)O)CCN(Cc3ccccc3)CC2)cc1` is lower in melting point: 201 °C for the first, 144 °C for the second.

First: Cc1ccc(-c2ccc(C)cc2C=CC#Cc2ccc(C(=O)O)cc2)cc1
Second: Cc1ccc(N2C(=O)C(O)=C(C(=O)c3ccc(C(C)C)cc3)C2c2ccc(O)cc2)nn1 (centres undefined)
The melting point of the first is lower: 61 to 67 °C for the first, 222 to 224 °C for the second.

First: O=C(NC1C(=O)N(CCCO)c2ccccc2N(c2ccccc2)C1=O)Oc1ccccc1 (centres undefined)
Second: COc1ccccc1NC(=O)Nc1nc(Nc2ccccc2-c2ccccc2)nc(N2CCCCC2C(=O)O)n1 (centres undefined)
The melting point of the first is higher: 203 to 204 °C for the first, 150 to 154 °C for the second.

First: O=c1[nH]c2ccccc2n1-c1ccc(Cl)cc1Cl
Second: COc1cccc(C2(Cl)C(=O)Nc3ccc(Cl)cc32)c1 (centres undefined)
The melting point of the first is higher: 213 to 216 °C for the first, 170 °C for the second.

Compared with `COC(=O)Nc1nc2ccccc2n1C(=O)NCC1(C)CC(NC(=O)n2c(NC(=O)OC)nc3ccccc32)CC(C)(C)C1` (centres undefined), `Cc1nc2c(N)nc3ccccc3c2n1CCCCNC(=O)Nc1ccccc1` is higher in melting point: 82 to 83 °C for the first, 172 °C for the second.

Going from `S=C(N1CCCCC1)C1(c2ccccn2)CCCS1` (centres undefined) to `O=C1CCCc2nc(N3CCN(Cc4ccccc4)CC3)ncc2N1`, the melting point rises from 90 °C to 211 °C.

Compared with `NC(=O)CCCCCOc1cc2ccc(-c3ccc(C(=O)O)cc3)cc2cc1C12CC3CC(CC(C3)C1)C2`, `CCCc1c(OCCCCCCc2ccc(C(=O)c3cccc(C(=O)O)c3)cc2CCC(=O)O)ccc2c1OCCC2=O` is lower in melting point: 209 to 210 °C for the first, 137 to 139 °C for the second.

First: CN1C(=O)N(c2ccc(Cl)cc2)S(=O)(=O)c2ccc(OCC3CCCCC3)cc21
Second: CCOC(=O)N1CCN(C2=Nc3ccccc3Oc3ccc(Cl)cc32)CC1
The melting point of the first is higher: 127 to 129 °C for the first, 122 °C for the second.

First: ClC(Cl)c1cccc2nnsc12
Second: CCC(C#Cc1cccc(Oc2ccccn2)c1)N(O)C(N)=O (centres undefined)
The melting point of the first is higher: 131 to 133 °C for the first, 96 to 98 °C for the second.

Compared with `CCOC(=O)C=CC(=O)c1ccc(Cl)cc1`, `CCOC(=O)C(=O)c1c[nH]c2c(CC)cccc12` is higher in melting point: 62.5 to 63.5 °C for the first, 152 to 154 °C for the second.

Compared with `C=CCSc1nnc(OC)c(C)c1C`, `CCOC(=O)c1c(SCc2ccc(OC)cc2)c(CC)c2cc(Cl)ccn2c1=O` is higher in melting point: 51 to 53 °C for the first, 159 to 160 °C for the second.

First: CCCCCCOc1ccc(-n2cc(C(=O)O)cn2)cc1C#N
Second: C#Cc1cnc2sc(SCCCCCCC)nn2c1=O
The melting point of the first is higher: 164 to 165 °C for the first, 140 to 142 °C for the second.

First: COc1cc(-c2ncn(C3CC3)c2-c2ccc(C(F)(F)F)cc2)cc(OC)c1OC
Second: N#Cc1c(Br)c(C(F)(F)F)n(CBr)c1-c1ccc(Cl)cc1
The melting point of the first is lower: 125 to 130 °C for the first, 131 to 132 °C for the second.

Compared with `O=C(Nc1ccc([N+](=O)[O-])cc1)N1CCN(c2nc(-c3ccccc3)nc3ccccc23)CC1`, `O=C(Nc1cccnn1)N1CCN(c2nc(-c3cccc(F)c3)cs2)CC1` is lower in melting point: 236 to 238 °C for the first, 176 to 177 °C for the second.

Compared with `C=CCC1(CC=C)c2cc(Br)ccc2-c2ccc(N(c3ccccc3)c3ccccc3)cc21`, `Cn1c(COc2ccc(CC3SC(=O)NC3=O)cc2)nc2ccc(Sc3ccccc3)nc21` (centres undefined) is higher in melting point: 141 to 143 °C for the first, 166 to 168 °C for the second.

First: O=C(NCCC(F)(F)F)c1nc(Cl)c(Cl)[nH]1
Second: OCCNc1c(Br)cnc2cc(C(F)(F)F)ccc12
The melting point of the first is higher: 177 °C for the first, 140 to 141 °C for the second.

First: N#CC1(C#N)C2CC(C(Cl)C2Cl)C1(Cl)Cl (centres undefined)
Second: Cc1ccccc1C(=O)CC(C#N)C#N
The melting point of the first is higher: 126 °C for the first, 92 to 93 °C for the second.

First: CC1(C)OC2C(Br)=CC(CC(N)=O)C(Br)C2O1 (centres undefined)
Second: O=C(O)CCCSc1cccc(Br)n1
The melting point of the first is higher: 181 °C for the first, 72 to 74 °C for the second.

Compared with `O=C(O)COc1cccc2c1CCc1sc(SC(c3ccccc3F)c3ccccc3F)nc1-2`, `CC(NC(=O)Cc1cc(F)cc(F)c1)C(=O)NC1C(=O)NC(Cc2ccccc2)c2ccccc21` (centres undefined) is lower in melting point: 194 to 196 °C for the first, 106 to 107 °C for the second.

First: N#CCCCOc1cccc(OCc2ccc3ccccc3n2)c1
Second: CCc1c(Cc2ccccc2)c2ccc(OC)cc2n1CC(=O)NN
The melting point of the first is lower: 84 to 85 °C for the first, 164 to 166 °C for the second.

First: COC(=O)NC1CCC(Nc2ncc3ncnc(Nc4ccc(F)c(Cl)c4)c3n2)CC1 (centres undefined)
Second: CNC(=O)c1ccccc1Nc1nc(Nc2ccc3c(c2)CCN(CC(F)(F)F)CC3)ncc1Cl
The melting point of the first is higher: 230 to 235 °C for the first, 177 to 190 °C for the second.

First: COc1ccc(-c2cc(C(F)F)nn2-c2ccc(S(N)(=O)=O)cc2)cc1
Second: COc1cc(F)ccc1-c1ccc(S(=O)(=O)N2c3ccccc3CC2C(=O)NCCOc2ccc(CC(=O)O)cc2)cc1 (centres undefined)
The melting point of the first is higher: 133 to 135 °C for the first, 102 to 110 °C for the second.

First: O=C1NCc2ccccc2C([N+](=O)[O-])N1 (centres undefined)
Second: CC1Cc2ccccc2N1c1nc(=O)c2cccnc2s1 (centres undefined)
The melting point of the first is lower: 93 to 95 °C for the first, 179 to 180 °C for the second.

First: C=CC(CC(=O)Nc1ccc(F)cc1)C(C)C (centres undefined)
Second: CC(C)n1c(C=O)c(-c2ccc(F)cc2)c(-c2ccccc2)c1C(N)=O
The melting point of the first is lower: 74 to 75 °C for the first, 187 to 188 °C for the second.

Compared with `CC1(c2ccccc2)OCC(OCc2ccccc2)CO1` (centres undefined), `CCCCCNC(=S)NC(=Nc1ccccc1)c1ccccc1` is higher in melting point: 87 to 88 °C for the first, 157 to 158 °C for the second.

First: CNC(=C[N+](=O)[O-])NCCSCc1ccccn1
Second: CCCNC(=N)NC(=O)NCc1ccccn1
The melting point of the first is lower: 112 to 113 °C for the first, 195 to 197 °C for the second.

First: Clc1cc(CCc2ccccn2)c2oc(-c3ccc4[nH]nnc4c3)nc2c1
Second: O=C(CCCN1CCOCC1)Nc1cccc(-c2ccnc3c(C(=O)c4cccs4)cnn23)c1
The melting point of the first is higher: 242 to 244 °C for the first, 127 to 133 °C for the second.

Compared with `CCOC(=O)c1cn(C2CC2)c2nc(N3CCC(NCC(C)=O)C3)c(F)cc2c1=O` (centres undefined), `Cc1nc2sccn2c(=O)c1CCN1CCC(NC(=O)c2cc(Cl)c(N)c3c2OCCC3)CC1` is higher in melting point: 203 to 204 °C for the first, 212 °C for the second.

First: CCCC(=O)NCCc1c[nH]c2ccc3c(c12)CCCO3
Second: Cc1c(NCCN2C(=O)c3ccccc3C2=O)c(=O)n(C)c(=O)n1C
The melting point of the first is lower: 91 to 93 °C for the first, 178 to 180 °C for the second.

First: O=C(NCCN1CCN(c2cccc(Cl)c2)CC1)NC12CC3CC(CC(C3)C1)C2
Second: CCOC(=O)c1sc(-n2ccc(OCc3ccc(C(F)(F)F)o3)cc2=O)nc1C
The melting point of the first is lower: 136 to 137 °C for the first, 196 to 198 °C for the second.

Compared with `COc1cc(OC)c2c(=O)oc(=O)[nH]c2c1`, `COC(=O)C=Cc1cn(C)nc1[N+](=O)[O-]` is lower in melting point: 287 to 293 °C for the first, 110 to 112 °C for the second.

`CCCCCCCCCCCCCCCCCCCC(=O)Nc1ccn(C2OC(CO)C(O)C2O)c(=O)n1` (centres undefined) showed a melting point of 138 to 142 °C.
